Results reported in publication PMC5513037, “Examining the influence of specificity ligands and ATP-competitive ligands on the overall effectiveness of bivalent kinase inhibitors” (Proteome Science, 2017).

Assays:
Test in all cases: KAM-matrix competition in K562 lysate;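 on 0.001 uM KAM: median log10 fold change of treatment over DMSO control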;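 on 0.01 uM KAM: median log10 fold change of treatment over DMSO control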;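 on 0.1 uM KAM: median log10 fold change of treatment over DMSO control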;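 on 1 uM KAM: median log10 fold change of treatment over DMSO control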;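 on 10 uM KAM: median log10 fold change of treatment over DMSO control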
Type in all cases: binding
NEK1 = target: T1, NEK1 (Homo sapiens, UniProt Q96PY6)
T1 construct: endogenous in cells; host or cells: K562
T1 sequence (Q96PY6 1-1258): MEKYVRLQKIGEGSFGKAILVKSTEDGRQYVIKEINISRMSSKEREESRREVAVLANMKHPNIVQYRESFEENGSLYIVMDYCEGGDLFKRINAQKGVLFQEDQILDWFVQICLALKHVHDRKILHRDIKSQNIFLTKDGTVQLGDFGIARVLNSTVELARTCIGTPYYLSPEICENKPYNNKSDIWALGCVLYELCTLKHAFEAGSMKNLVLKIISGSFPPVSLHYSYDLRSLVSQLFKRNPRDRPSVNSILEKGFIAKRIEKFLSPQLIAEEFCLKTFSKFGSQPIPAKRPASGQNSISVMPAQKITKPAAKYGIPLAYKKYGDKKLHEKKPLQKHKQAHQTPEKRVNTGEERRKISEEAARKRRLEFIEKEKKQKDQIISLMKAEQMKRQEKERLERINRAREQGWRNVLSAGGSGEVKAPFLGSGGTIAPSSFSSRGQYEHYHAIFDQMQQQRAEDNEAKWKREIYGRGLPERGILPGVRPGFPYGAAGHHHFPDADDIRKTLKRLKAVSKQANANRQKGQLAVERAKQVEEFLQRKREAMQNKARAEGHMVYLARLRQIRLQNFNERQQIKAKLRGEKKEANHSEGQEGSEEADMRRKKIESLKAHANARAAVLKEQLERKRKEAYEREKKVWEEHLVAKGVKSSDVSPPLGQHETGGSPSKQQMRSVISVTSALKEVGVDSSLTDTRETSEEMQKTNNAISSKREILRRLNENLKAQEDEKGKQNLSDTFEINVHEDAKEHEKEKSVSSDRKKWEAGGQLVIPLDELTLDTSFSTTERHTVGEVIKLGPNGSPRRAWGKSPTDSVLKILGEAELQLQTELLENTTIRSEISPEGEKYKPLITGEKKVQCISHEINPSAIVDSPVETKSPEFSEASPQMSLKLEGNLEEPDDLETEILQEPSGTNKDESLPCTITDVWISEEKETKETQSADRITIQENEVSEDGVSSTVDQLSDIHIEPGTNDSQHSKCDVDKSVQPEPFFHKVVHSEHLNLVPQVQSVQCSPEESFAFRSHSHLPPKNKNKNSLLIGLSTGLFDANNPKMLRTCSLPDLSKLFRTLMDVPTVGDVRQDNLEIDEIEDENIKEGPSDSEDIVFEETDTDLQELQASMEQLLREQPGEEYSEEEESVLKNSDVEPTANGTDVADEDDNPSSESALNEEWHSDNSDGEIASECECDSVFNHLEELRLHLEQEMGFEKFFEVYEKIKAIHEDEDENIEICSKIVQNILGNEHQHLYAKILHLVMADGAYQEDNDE
Experimental: (§1) Supplement 12953_2017_125_MOESM1_ESM.zip/MS_Supp Info.xlsx, sheet "KAM" | column: 10 uM KAM; 1 uM KAM; 0.1 uM KAM; 0.01 uM KAM; 0.001 uM KAM; RB50

RET = target: T2, RET (Homo sapiens, UniProt P07949)
T2 construct: endogenous in cells; host or cells: K562
Experimental: as §1

MAPK9 = target: T3, MAPK9 (Homo sapiens, UniProt P45984)
T3 construct: endogenous in cells; host or cells: K562
Experimental: as §1

ROR2 = target: T4, ROR2 (Homo sapiens, UniProt Q01974);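 on 0.001 uM KAM: median log10 fold change of treatment over DMSO control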;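 on 0.01 uM KAM: median log10 fold change of treatment over DMSO control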;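 on 0.1 uM KAM: median log10 fold change of treatment over DMSO control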;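 on 1 uM KAM: median log10 fold change of treatment over DMSO control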;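 on 10 uM KAM: median log10 fold change of treatment over DMSO control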
T4 construct: endogenous in cells; host or cells: K562
Experimental: as §1

CDK17 = target: T5, CDK17 (Homo sapiens, UniProt Q00537);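 on 0.001 uM KAM: median log10 fold change of treatment over DMSO control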;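 on 0.01 uM KAM: median log10 fold change of treatment over DMSO control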;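 on 0.1 uM KAM: median log10 fold change of treatment over DMSO control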;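 on 1 uM KAM: median log10 fold change of treatment over DMSO control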;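 on 10 uM KAM: median log10 fold change of treatment over DMSO control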
T5 construct: endogenous in cells; host or cells: K562 cell lysate
Experimental: as §1

PKN1 = target: T6, PKN1 (Homo sapiens, UniProt Q16512);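 on 0.001 uM KAM: median log10 fold change of treatment over DMSO control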;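 on 0.01 uM KAM: median log10 fold change of treatment over DMSO control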;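 on 0.1 uM KAM: median log10 fold change of treatment over DMSO control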;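 on 1 uM KAM: median log10 fold change of treatment over DMSO control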;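 on 10 uM KAM: median log10 fold change of treatment over DMSO control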
T6 construct: endogenous in cells; host or cells: K562
Experimental: as §1

PAK4 = target: T7, PAK4 (Homo sapiens, UniProt O96013)
T7 construct: endogenous in cells; host or cells: K562
Experimental: as §1

ABL2 = target: T8, ABL2 (Homo sapiens, UniProt P42684)
T8 construct: endogenous in cells; host or cells: K562
Experimental: as §1

ACVR2B = target: T9, ACVR2B (Homo sapiens, UniProt Q13705);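 on 0.001 uM KAM: median log10 fold change of treatment over DMSO control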;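 on 0.01 uM KAM: median log10 fold change of treatment over DMSO control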;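 on 0.1 uM KAM: median log10 fold change of treatment over DMSO control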;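 on 1 uM KAM: median log10 fold change of treatment over DMSO control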;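 on 10 uM KAM: median log10 fold change of treatment over DMSO control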
T9 construct: endogenous in cells; host or cells: K562 cell lysate
Experimental: as §1

BUB1B = target: T10, BUB1B (Homo sapiens, UniProt O60566);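 on 0.001 uM KAM: median log10 fold change of treatment over DMSO control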;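 on 0.01 uM KAM: median log10 fold change of treatment over DMSO control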;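 on 0.1 uM KAM: median log10 fold change of treatment over DMSO control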;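 on 1 uM KAM: median log10 fold change of treatment over DMSO control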;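 on 10 uM KAM: median log10 fold change of treatment over DMSO control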
T10 construct: endogenous in cells; host or cells: K562
Experimental: as §1

CAMK2G = target: T11, CAMK2G (Homo sapiens, UniProt Q13555);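 on 0.001 uM KAM: median log10 fold change of treatment over DMSO control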;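 on 0.01 uM KAM: median log10 fold change of treatment over DMSO control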;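 on 0.1 uM KAM: median log10 fold change of treatment over DMSO control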;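 on 1 uM KAM: median log10 fold change of treatment over DMSO control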;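 on 10 uM KAM: median log10 fold change of treatment over DMSO control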
T11 construct: endogenous in cells; host or cells: K562
Experimental: as §1

[1] = read-out: RB50 (the source's name)
[2] = KAM 0.001-10 uM, read-out: RB50 (the source's name)

T5 sequence (Q00537 whole entry): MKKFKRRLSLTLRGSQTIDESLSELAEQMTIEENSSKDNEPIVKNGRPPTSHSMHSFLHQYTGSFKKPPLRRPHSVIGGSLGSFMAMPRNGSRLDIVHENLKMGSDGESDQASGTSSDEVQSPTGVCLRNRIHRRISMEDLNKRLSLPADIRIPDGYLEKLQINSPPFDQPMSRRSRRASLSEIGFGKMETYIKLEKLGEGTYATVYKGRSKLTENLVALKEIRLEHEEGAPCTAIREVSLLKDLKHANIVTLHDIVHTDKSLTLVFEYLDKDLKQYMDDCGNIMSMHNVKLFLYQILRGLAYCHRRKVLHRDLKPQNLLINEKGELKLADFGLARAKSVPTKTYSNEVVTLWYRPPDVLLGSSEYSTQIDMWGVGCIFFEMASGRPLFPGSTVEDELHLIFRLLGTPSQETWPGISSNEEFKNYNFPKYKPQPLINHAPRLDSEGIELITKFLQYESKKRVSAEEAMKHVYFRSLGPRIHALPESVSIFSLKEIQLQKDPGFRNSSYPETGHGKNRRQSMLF
T6 sequence (Q16512 whole entry): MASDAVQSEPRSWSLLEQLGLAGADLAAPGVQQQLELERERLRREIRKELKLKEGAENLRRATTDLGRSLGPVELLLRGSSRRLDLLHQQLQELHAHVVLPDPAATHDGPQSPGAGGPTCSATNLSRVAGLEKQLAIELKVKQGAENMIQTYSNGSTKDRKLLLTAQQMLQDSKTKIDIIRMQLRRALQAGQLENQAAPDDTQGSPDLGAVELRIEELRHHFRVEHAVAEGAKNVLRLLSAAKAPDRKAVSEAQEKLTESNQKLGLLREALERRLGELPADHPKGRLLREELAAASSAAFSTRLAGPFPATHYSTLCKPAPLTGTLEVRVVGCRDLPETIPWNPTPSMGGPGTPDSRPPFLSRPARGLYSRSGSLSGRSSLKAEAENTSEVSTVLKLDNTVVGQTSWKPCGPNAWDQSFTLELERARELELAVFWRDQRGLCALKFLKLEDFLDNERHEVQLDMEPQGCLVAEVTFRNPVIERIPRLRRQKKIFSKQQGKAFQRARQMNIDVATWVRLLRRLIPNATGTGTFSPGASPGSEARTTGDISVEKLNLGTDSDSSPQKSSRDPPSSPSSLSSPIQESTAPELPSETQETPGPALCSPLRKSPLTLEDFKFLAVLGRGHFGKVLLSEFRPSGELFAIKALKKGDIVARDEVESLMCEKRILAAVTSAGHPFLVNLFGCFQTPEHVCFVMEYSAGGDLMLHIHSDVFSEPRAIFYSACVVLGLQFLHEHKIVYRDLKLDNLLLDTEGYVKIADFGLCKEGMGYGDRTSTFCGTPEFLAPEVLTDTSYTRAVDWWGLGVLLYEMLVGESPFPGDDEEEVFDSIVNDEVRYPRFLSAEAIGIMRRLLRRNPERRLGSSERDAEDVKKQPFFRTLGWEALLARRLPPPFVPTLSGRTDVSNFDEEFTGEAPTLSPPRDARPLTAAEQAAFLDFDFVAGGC
T8 sequence (P42684 whole entry): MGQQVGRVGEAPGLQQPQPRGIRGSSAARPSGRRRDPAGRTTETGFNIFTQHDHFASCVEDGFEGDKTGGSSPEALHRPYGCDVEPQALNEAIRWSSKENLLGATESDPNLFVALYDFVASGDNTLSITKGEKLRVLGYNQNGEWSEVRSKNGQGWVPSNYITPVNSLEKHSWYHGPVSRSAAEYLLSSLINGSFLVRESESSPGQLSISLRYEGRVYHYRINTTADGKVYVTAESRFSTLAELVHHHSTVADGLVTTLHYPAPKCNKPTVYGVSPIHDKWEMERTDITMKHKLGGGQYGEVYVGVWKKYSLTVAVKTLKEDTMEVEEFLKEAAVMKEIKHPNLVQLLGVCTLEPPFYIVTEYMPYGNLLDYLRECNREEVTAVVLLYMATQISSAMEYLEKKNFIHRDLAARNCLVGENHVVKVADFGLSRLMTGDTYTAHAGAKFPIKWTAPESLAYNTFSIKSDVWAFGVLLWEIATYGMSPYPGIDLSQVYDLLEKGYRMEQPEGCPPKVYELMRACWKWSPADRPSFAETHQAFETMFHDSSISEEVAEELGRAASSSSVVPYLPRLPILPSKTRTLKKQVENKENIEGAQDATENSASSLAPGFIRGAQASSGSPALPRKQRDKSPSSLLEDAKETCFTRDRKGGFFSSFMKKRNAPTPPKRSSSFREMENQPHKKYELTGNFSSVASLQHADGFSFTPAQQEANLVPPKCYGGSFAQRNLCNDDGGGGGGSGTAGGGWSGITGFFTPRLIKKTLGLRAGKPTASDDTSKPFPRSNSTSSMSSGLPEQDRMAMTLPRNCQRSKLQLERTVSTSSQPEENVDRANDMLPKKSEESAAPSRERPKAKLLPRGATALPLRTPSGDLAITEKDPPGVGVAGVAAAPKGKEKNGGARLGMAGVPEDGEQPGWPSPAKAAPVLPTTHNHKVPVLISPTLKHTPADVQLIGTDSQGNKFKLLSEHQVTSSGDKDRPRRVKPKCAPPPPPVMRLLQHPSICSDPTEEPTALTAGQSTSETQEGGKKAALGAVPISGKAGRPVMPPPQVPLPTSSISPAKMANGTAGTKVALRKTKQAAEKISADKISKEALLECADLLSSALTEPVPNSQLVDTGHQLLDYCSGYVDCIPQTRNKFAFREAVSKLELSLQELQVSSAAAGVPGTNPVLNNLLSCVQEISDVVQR
T2 sequence (P07949 29-1114): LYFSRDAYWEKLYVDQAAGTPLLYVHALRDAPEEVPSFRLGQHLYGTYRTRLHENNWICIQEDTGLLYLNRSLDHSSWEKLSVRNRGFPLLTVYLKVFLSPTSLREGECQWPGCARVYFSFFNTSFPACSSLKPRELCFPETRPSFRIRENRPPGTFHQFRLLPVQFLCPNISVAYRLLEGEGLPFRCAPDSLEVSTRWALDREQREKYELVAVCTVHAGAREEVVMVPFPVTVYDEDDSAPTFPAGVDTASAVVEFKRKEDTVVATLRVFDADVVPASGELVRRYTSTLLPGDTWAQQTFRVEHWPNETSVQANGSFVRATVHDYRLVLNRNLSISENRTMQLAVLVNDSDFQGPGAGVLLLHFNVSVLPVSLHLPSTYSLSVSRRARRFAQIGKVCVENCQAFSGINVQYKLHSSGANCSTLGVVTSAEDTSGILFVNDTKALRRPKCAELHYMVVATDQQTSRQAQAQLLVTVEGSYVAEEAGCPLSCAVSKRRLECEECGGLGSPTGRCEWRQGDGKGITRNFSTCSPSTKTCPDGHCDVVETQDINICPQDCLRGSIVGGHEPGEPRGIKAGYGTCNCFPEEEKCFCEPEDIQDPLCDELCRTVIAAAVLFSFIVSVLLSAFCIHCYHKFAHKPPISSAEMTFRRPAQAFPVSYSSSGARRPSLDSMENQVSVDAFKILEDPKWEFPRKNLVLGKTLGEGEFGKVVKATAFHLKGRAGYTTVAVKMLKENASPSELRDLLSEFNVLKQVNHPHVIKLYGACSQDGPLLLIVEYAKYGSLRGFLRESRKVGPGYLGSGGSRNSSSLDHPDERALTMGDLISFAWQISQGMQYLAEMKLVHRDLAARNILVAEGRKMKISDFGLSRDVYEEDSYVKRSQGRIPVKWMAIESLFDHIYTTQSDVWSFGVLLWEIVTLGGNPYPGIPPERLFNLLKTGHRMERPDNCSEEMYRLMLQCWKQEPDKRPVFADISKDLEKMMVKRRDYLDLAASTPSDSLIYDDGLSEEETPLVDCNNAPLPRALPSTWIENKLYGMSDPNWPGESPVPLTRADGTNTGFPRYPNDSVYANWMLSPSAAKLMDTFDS
T7 sequence (O96013 whole entry): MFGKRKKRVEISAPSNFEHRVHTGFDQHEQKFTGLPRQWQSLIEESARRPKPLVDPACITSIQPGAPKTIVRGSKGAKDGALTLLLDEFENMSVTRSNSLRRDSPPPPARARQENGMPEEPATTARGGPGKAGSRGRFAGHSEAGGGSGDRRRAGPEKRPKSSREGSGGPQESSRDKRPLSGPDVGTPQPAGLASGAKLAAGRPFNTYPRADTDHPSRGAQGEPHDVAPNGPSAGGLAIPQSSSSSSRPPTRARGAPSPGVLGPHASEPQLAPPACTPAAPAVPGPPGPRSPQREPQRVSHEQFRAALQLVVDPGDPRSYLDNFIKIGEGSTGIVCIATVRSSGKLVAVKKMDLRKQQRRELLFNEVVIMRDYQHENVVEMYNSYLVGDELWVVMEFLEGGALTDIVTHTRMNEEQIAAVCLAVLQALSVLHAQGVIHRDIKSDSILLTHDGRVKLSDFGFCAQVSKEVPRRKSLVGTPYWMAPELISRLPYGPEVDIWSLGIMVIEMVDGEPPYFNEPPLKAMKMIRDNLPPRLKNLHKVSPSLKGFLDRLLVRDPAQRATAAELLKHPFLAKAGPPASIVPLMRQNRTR
T11 sequence (Q13555 whole entry): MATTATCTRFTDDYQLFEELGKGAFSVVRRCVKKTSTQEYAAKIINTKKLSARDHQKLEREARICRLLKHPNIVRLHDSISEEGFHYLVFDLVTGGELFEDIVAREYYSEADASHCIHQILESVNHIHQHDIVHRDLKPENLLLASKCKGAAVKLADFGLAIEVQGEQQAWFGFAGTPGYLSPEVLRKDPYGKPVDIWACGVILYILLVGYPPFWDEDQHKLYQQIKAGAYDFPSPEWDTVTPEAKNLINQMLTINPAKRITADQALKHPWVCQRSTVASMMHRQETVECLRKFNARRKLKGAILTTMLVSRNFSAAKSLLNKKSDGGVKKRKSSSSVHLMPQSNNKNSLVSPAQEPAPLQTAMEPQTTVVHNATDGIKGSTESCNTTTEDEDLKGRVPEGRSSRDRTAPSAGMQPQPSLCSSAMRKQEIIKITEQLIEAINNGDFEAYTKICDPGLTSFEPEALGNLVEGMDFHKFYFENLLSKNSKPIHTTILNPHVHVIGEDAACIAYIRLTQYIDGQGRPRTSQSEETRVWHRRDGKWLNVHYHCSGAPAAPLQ

N#CCc1ccc(Nc2nc(NCCCN)cc(Nc3cc(C4CC4)[nH]n3)n2)cc1 [KAM]
median Log10 fold change (NEK1; 0.001 uM KAM): -0.02178 | median Log10 fold change (NEK1; 0.01 uM KAM): -0.02485 | median Log10 fold change (NEK1; 0.1 uM KAM): -0.1728 | median Log10 fold change (NEK1; 1 uM KAM): -0.239 | median Log10 fold change (NEK1; 10 uM KAM): -0.318 | IC50 (NEK1; [1]): 3390 nM | median Log10 fold change (RET; 0.001 uM KAM): -0.129 | median Log10 fold change (RET; 0.01 uM KAM): -0.007083 | median Log10 fold change (RET; 0.1 uM KAM): -0.09548 | median Log10 fold change (RET; 1 uM KAM): -0.3474 | median Log10 fold change (RET; 10 uM KAM): -0.5381 | IC50 (RET; [1]): 908 nM | median Log10 fold change (MAPK9; 0.001 uM KAM): -0.01416 | median Log10 fold change (MAPK9; 0.01 uM KAM): -0.02342 | median Log10 fold change (MAPK9; 0.1 uM KAM): -0.0954 | median Log10 fold change (MAPK9; 1 uM KAM): -0.2518 | median Log10 fold change (MAPK9; 10 uM KAM): -0.4014 | IC50 (MAPK9; [1]): 2070 nM | IC50 (ROR2; [2]): > 10000 nM | 0.001 uM KAM (ROR2; relative to 0 uM KAM = 0): -0.05631 | 0.01 uM KAM (ROR2; relative to 0 uM KAM = 0): -0.02329 | 0.1 uM KAM (ROR2; relative to 0 uM KAM = 0): -0.008785 | 1 uM KAM (ROR2; relative to 0 uM KAM = 0): -0.03493 | 10 uM KAM (ROR2; relative to 0 uM KAM = 0): 0.2477 | IC50 (CDK17; [2]): > 10000 nM | 0.001 uM KAM (CDK17; relative to 0 uM KAM = 0): -0.02399 | 0.01 uM KAM (CDK17; relative to 0 uM KAM = 0): -0.01557 | 0.1 uM KAM (CDK17; relative to 0 uM KAM = 0): -0.06864 | 1 uM KAM (CDK17; relative to 0 uM KAM = 0): -0.1892 | 10 uM KAM (CDK17; relative to 0 uM KAM = 0): -0.2802 | IC50 (PKN1; [2]): > 10000 nM | 0.001 uM KAM (PKN1; relative to 0 uM KAM = 0): -0.02702 | 0.01 uM KAM (PKN1; relative to 0 uM KAM = 0): -0.01686 | 0.1 uM KAM (PKN1; relative to 0 uM KAM = 0): -0.08252 | 1 uM KAM (PKN1; relative to 0 uM KAM = 0): -0.1762 | 10 uM KAM (PKN1; relative to 0 uM KAM = 0): -0.2257 | median Log10 fold change (PAK4; 0.001 uM KAM): -0.02305 | median Log10 fold change (PAK4; 0.01 uM KAM): -0.006782 | median Log10 fold change (PAK4; 0.1 uM KAM): -0.1812 | median Log10 fold change (PAK4; 1 uM KAM): -0.403 | median Log10 fold change (PAK4; 10 uM KAM): -0.4884 | IC50 (PAK4; [1]): 527 nM | median Log10 fold change (ABL2; 0.001 uM KAM): -0.03166 | median Log10 fold change (ABL2; 0.01 uM KAM): -0.02797 | median Log10 fold change (ABL2; 0.1 uM KAM): -0.1724 | median Log10 fold change (ABL2; 1 uM KAM): -0.2861 | median Log10 fold change (ABL2; 10 uM KAM): -0.4205 | IC50 (ABL2; [1]): 1220 nM | IC50 (ACVR2B; [2]): > 10000 nM | 0.001 uM KAM (ACVR2B; relative to 0 uM KAM = 0): 0.02766 | 0.01 uM KAM (ACVR2B; relative to 0 uM KAM = 0): -0.009918 | 0.1 uM KAM (ACVR2B; relative to 0 uM KAM = 0): -0.09138 | 1 uM KAM (ACVR2B; relative to 0 uM KAM = 0): -0.2794 | 10 uM KAM (ACVR2B; relative to 0 uM KAM = 0): -0.2958 | IC50 (BUB1B; [2]): > 10000 nM | 0.001 uM KAM (BUB1B; relative to 0 uM KAM = 0): -0.0187 | 0.01 uM KAM (BUB1B; relative to 0 uM KAM = 0): -0.008778 | 0.1 uM KAM (BUB1B; relative to 0 uM KAM = 0): -0.0591 | 1 uM KAM (BUB1B; relative to 0 uM KAM = 0): -0.007813 | 10 uM KAM (BUB1B; relative to 0 uM KAM = 0): -0.008689 | IC50 (CAMK2G; [2]): > 10000 nM | 0.001 uM KAM (CAMK2G; relative to 0 uM KAM = 0): -0.0014 | 0.01 uM KAM (CAMK2G; relative to 0 uM KAM = 0): 0.01571 | 0.1 uM KAM (CAMK2G; relative to 0 uM KAM = 0): -0.03365 | 1 uM KAM (CAMK2G; relative to 0 uM KAM = 0): -0.07588 | 10 uM KAM (CAMK2G; relative to 0 uM KAM = 0): -0.2109
